The values that follow come from PubChem BioAssay (NCI).

Some test systems named below: A549 NSCLC; CCRF-CEM leukemia; HT29 colon; IGROV1 ovarian; LOX IMVI melanoma; MALME-3M melanoma; MDA-MB-231 breast; SF-295 CNS; SK-OV-3 ovarian; SNB-19 CNS.
What all share (test): NCI-60 cell line screen, 48 h

Several values for one entry are separate records, joined by “and”; a condition that tells them apart may be missing. Equal values may be shown once.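 1) Cells in 96-well plates. 2) Compound, 48 h, 5 concentrations. 3) Linear interpolation between surrounding doses. 4) Unreached endpoint = highest concentration. GI50 is the concentration that inhibits growth by half. TGI: total growth inhibition.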

As to `CSc1nc(SC)c2c(C)cn(COCCOC(=O)c3ccccc3)c2n1`, the TGI in the assay with A549 NSCLC, with CCRF-CEM leukemia, in the assay on HT29 colon, in the assay with IGROV1 ovarian, with LOX IMVI melanoma and with MALME-3M melanoma was > 100000 nM each time. Moreover, the TGI with MDA-MB-231 breast, in the assay with SF-295 CNS, with SK-OV-3 ovarian and with SNB-19 CNS was > 100000 nM each time.

For the compound `CCN1C(=O)N(CC)C2C1N=C(SC)N2/N=C/C=C/c1ccccc1OC` (stereo not drawn), the GI50 in the assay on A549 NSCLC was 469 nM; in the assay on CCRF-CEM leukemia, 379 nM; in the assay on HT29 colon, 357 nM; with IGROV1 ovarian, 618 nM; in the assay with LOX IMVI melanoma it was 564 nM; with MALME-3M melanoma, 1010 nM. Besides, the GI50 was 348 nM with MDA-MB-231 breast, 358 nM in the assay on SF-295 CNS, 743 nM in the assay with SK-OV-3 ovarian and 492 nM with SNB-19 CNS. Besides, the TGI with A549 NSCLC is > 47800 nM; in the assay with CCRF-CEM leukemia, > 48200 nM; in the assay on IGROV1 ovarian, > 45100 nM; in the assay on LOX IMVI melanoma it was > 36700 nM; in the assay with MALME-3M melanoma it was > 42800 nM; in the assay on MDA-MB-231 breast it was 10800 nM. In addition, the TGI was > 37400 nM in the assay on SF-295 CNS, > 59500 nM with SK-OV-3 ovarian and > 39000 nM with SNB-19 CNS.

For the compound `C[C@]12CCC(=O)C[C@@H]1CC[C@@H]1[C@@H]2CC[C@]2(C)[C@@H](OC(=O)N(CCCl)N=O)CC[C@@H]12`, the GI50 with A549 NSCLC is 353 nM; with CCRF-CEM leukemia, 207 nM; in the assay with HT29 colon, 2750 nM; in the assay on IGROV1 ovarian, 1470 nM; with LOX IMVI melanoma it was 625 nM; in the assay with MALME-3M melanoma, 4300 nM. The GI50 in the assay on MDA-MB-231 breast is 9480 nM; in the assay on SF-295 CNS, 133 nM; with SK-OV-3 ovarian it was 1410 nM; in the assay with SNB-19 CNS it was 411 nM. Further, the TGI is 11600 nM with A549 NSCLC; > 39000 nM in the assay with HT29 colon; 12800 nM in the assay on IGROV1 ovarian; 15400 nM in the assay on LOX IMVI melanoma; 24100 nM in the assay on MALME-3M melanoma; 24400 nM with MDA-MB-231 breast. Besides, the TGI in the assay on SF-295 CNS was > 45400 nM; with SK-OV-3 ovarian, 13600 nM; in the assay with SNB-19 CNS, 17800 nM.

With `CN(C)c1ccc2[nH]c3c(C(N)=O)cc(=O)c(=O)c=3oc2c1`, the GI50 in the assay on A549 NSCLC is 3190 nM; in the assay with CCRF-CEM leukemia, 472 nM; in the assay with HT29 colon it was 3660 nM; with IGROV1 ovarian, 1950 nM; in the assay on LOX IMVI melanoma it was 334 nM; with MALME-3M melanoma, 1810 nM. Also, the GI50 in the assay on MDA-MB-231 breast is 1700 nM; in the assay on SF-295 CNS, 3220 nM; in the assay with SK-OV-3 ovarian it was 3540 nM; with SNB-19 CNS, 2340 nM. For the same compound, the TGI was > 100000 nM in the assay on A549 NSCLC; > 100000 nM in the assay with CCRF-CEM leukemia; > 100000 nM in the assay on HT29 colon; 14200 nM in the assay on IGROV1 ovarian; > 100000 nM in the assay on LOX IMVI melanoma; 4450 nM with MALME-3M melanoma. In addition, the TGI in the assay with MDA-MB-231 breast is 8670 nM; in the assay on SF-295 CNS, > 100000 nM; in the assay with SK-OV-3 ovarian, > 100000 nM; with SNB-19 CNS, 9810 nM.

For the compound `CNC(=O)c1cc(Oc2ccc(NC(=O)Nc3cc(C(C)(C)C)nn3-c3ccc4ncccc4c3)c(F)c2)ccn1`, the GI50 in the assay on A549 NSCLC was 1830 nM and 1800 nM; in the assay with CCRF-CEM leukemia it was 2350 nM and 2570 nM; in the assay with HT29 colon, 520 nM and 505 nM; in the assay with IGROV1 ovarian, 712 nM and 1260 nM; in the assay with LOX IMVI melanoma, 405 nM; in the assay with MALME-3M melanoma, 212 nM and 53.6 nM. In addition, the GI50 is 827 nM and 963 nM in the assay with MDA-MB-231 breast; 1690 nM and 1580 nM in the assay on SF-295 CNS; 1590 nM and 2340 nM in the assay with SK-OV-3 ovarian; 3100 nM and 3090 nM in the assay with SNB-19 CNS. In addition, the TGI was 7720 nM and 6500 nM with A549 NSCLC; 8360 nM and > 31600 nM with CCRF-CEM leukemia; 3650 nM and 5070 nM with HT29 colon; 6610 nM and 6800 nM with IGROV1 ovarian; 2080 nM in the assay on LOX IMVI melanoma; 1310 nM and 500 nM in the assay with MALME-3M melanoma. The TGI was 7120 nM and 5780 nM in the assay on MDA-MB-231 breast; 8260 nM and 5620 nM in the assay with SF-295 CNS; 6590 nM and 7800 nM with SK-OV-3 ovarian; 8870 nM and 7980 nM in the assay on SNB-19 CNS.

Regarding `CN1CCN(c2ccc(NC3=CC(=O)c4ncncc4C3=O)cc2)CC1`, the GI50 with A549 NSCLC is 405 nM; in the assay on CCRF-CEM leukemia, 331 nM; in the assay on HT29 colon, 1720 nM; in the assay with IGROV1 ovarian, 231 nM; in the assay on LOX IMVI melanoma, 192 nM; with MALME-3M melanoma it was 268 nM. Also, the GI50 in the assay with MDA-MB-231 breast was 250 nM; in the assay with SF-295 CNS, 511 nM; with SK-OV-3 ovarian it was 1630 nM; in the assay with SNB-19 CNS it was 1520 nM. Also, the TGI in the assay on A549 NSCLC was 2300 nM; with CCRF-CEM leukemia it was > 100000 nM; in the assay with HT29 colon it was 5980 nM; in the assay on IGROV1 ovarian it was 542 nM; in the assay with LOX IMVI melanoma, 401 nM; in the assay on MALME-3M melanoma it was 713 nM. Besides, the TGI in the assay with MDA-MB-231 breast was 766 nM; in the assay with SF-295 CNS, 1660 nM; with SK-OV-3 ovarian, 3160 nM; in the assay on SNB-19 CNS, 2930 nM.
